Assay [1] deals with Ub. Description: Surface plasmon resonance, immobilized Sc_ENTH and free mono-Ub. It is filed as binding. Conditions: mutant complexes; Ub concentrations too low for accurate Kd, high standard errors. As for the experimental part:
Surface plasmon resonance: Purified His6-MBP-ENTH or mutants were immobilized on an Ni^+2 chip at a density of ˜800U. Untagged Ub (analyte) was injected at a flow rate of […] in 150 mM NaCl, 10 mM HEPES pH 7.0 and 0.010% poly-sorbate 20 at 24° C.; 500 mM imidazole was used for surface regeneration. To avoid immobilization of aggregated analyte the purified Ub was chromatographed by gel filtration and briefly sonicated immediately before SPR experiments. Data were processed with BioEvaluation and fitting carried out as a single-site-binding model with OriginLab. Standard errors derived from at least three samples.
Finally, to biophysically corroborate the data and to quantify the affinity of the ENTH:Ub complex, Surface Plasmon Resonance (SPR) measurements were performed with immobilized Sc_ENTH and free mono-Ub (FIG. 5I). […] Together, the correlation between the SPR measurements, the genetic and biochemical data provides a rough estimation for the sensitivity of the selection system in monitoring Ub binding.
Background: SPR reads the build-up and loss of mass on a sensor chip optically.

For the next assay, the target named is T1, Siah2 (Homo sapiens, UniProt O43255).
T1 construct: expressed in transfected cells; host or cells: E. coli W3110
T1 sequence (O43255 1-324): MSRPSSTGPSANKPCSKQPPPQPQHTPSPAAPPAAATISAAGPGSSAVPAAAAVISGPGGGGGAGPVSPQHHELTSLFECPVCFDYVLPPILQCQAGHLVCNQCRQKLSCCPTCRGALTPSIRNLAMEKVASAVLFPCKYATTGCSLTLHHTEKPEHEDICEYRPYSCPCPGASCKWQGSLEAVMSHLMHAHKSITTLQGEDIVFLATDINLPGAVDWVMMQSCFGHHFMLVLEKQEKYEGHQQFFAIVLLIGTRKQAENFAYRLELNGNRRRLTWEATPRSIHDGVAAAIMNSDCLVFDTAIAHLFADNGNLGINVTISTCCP
Description: Ubiquitination-dependent E. coli growth assay, bacteria addicted to Siah2 self-ubiquitination. The class given is cell-based. The conditions noted are these: only under the addictive conditions (selective media, TRIM); FIG. 2B right. As for the experimental part: Ubiquitination-dependent E. coli growth assay: E. coliW3110 (from Ezra Yagil laboratory at TAU) were co-transformed with the pND-Ub and the pCD-Sub plasmids and plated on LB agar supplemented with 34 μg/ml kanamycin and 25 μg/ml streptomycin. 5 ml of liquid LB medium supplemented with the same antibiotic concentrations were inoculated with a single colony and left to grow overnight at 37° C. The culture was harvested and washed twice with 5 ml of minimal Davis medium. The optical density (OD600.) was measured and adjusted to 0.2. Two and a half microliters of the diluted cultures from each sample were spotted on agar Davis plates containing 0, 0.5, 5, 10, 20 or 50 μg/ml of TRIM. The plates were incubated for 2-3 days at 30° C. and photographed with a UV camera in identical conditions. Each spotting assay was repeated at least 6 times.
Most E3-ligases undergo self-ubiquitination^20. The developed selection system thus provides a straightforward tool for their identification and characterization as self-ubiquitination is predicted to confer antibiotic resistance. Yeast Rsp5 and human Siah2, representatives of the HECT and the RING ligases, respectively, were fused to cDHFR. Growth phenotypes were observed under non-permissive conditions, only when all the required ubiquitination components were co-expressed (FIGS. 2A-B). […]

The target in the next assay is T2, E1 (Triticum aestivum, UniProt P20973).
T2 construct: expressed in transfected cells; host or cells: E. coli
T2 sequence (P20973 1-1051): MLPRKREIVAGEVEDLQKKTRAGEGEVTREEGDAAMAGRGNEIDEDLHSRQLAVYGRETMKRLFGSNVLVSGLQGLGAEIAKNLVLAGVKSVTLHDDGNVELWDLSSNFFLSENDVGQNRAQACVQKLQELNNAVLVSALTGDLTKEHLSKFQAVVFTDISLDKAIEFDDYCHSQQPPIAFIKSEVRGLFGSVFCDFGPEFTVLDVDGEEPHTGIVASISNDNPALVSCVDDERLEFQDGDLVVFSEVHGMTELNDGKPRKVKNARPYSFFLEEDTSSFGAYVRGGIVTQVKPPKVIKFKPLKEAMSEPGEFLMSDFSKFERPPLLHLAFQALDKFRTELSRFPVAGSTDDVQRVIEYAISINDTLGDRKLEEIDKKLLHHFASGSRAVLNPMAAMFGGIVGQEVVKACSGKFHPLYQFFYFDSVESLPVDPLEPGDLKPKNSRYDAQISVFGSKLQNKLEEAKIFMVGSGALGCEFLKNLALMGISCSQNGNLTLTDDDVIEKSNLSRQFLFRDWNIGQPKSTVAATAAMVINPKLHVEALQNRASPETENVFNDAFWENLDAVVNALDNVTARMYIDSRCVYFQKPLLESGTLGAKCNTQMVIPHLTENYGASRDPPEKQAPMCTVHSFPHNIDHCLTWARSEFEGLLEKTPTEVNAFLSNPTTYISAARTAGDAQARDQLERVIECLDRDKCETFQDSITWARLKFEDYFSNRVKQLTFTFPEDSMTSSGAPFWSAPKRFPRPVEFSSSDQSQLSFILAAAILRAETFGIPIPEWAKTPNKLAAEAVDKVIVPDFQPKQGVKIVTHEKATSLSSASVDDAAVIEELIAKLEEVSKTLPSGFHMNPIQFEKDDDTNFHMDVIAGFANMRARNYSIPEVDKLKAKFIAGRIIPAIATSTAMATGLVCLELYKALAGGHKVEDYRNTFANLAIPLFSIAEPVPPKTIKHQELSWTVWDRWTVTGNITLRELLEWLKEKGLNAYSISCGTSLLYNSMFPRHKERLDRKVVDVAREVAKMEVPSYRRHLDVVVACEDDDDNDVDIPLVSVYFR
Description: Selection experiments in solution growth media (96-well, TRIM with or without Pyr-41), Hrs dsUIM ubiquitination. It is filed as cell-based. Conditions: 100 μM Pyr-41, with or without TRIM, n=9; FIG. 3D. As for the experimental part: Selection experiments in solution growth media: Overnight cultures in LB medium (supplemented with 30 μg/ml kanamycin and 25 μg/ml streptomycin) were harvested and re-suspended in Davis minimal medium. Diluted cells (OD600, 0.2) were grown at 30° C. in 96-well plates containing 0.2 ml Davis medium supplemented with 0, 1, 5, 7, 10 and 12 μg/ml TRIM and with or without 100 μM Pyr-41. Growth rates were monitored by measuring the optical density (OD595) using a microplate spectrophotometer. Doubling time was calculated for early logarithmic growth (OD595 between 0.02 and 0.2). All experiments were performed at least 9 times (n=9).
The selection system stabilizes the dynamic and weak UBD:Ub non-covalent interactions by forming a covalent bond between Ub and Ub-receptor (i.e. ubiquitination) in the bacteria. The present inventors assessed the ability of the system to sense low affinity UBD by tethering the double-sided UIM (dsUIM) of Hrs as substrate^27,28 (FIG. 3A). The structures of Hrs:STAM (also known as ESCRT-0 complex) and particularly its dsUIM:Ub complex, were determined and facilitated detailed molecular assessment^29,30. The E3-independent self-ubiquitination of most Ub-receptors and the promiscuous function of Ubc4/5 subfamily members aided in the analysis. […] Similarly, I44-patch mutant abolished bacterial growth.

Assay [2] deals with Ub (Homo sapiens, UniProt P0CG47). The conditions noted are these: reference 26; read-out: affinity of VHS:Ub complex; cited from earlier work.

Regarding “Ub R42E, R72E: R42E, R72E double mutant of ubiquitin”, the “estimated affinity, fold lower than that of the wild-type” value with Ub [1] is recorded as 2.6 fold.

For `CC1=CC(=O)c2ccccc2C1=O` [menadione], the “growth phenotype in the presence of menadione” value on Siah2 was “growth arrest phenotype”.

Regarding `CCOC(=O)c1ccc(N2NC(=O)/C(=C/c3ccc([N+](=O)[O-])o3)C2=O)cc1` [PYR41], the “effect on bacterial growth (relative growth rates at log phase)” value at E1 is reported as “attenuates bacterial growth only in the non-permissive conditions”.

B1: Vps27: VHS domain of Vps27 in VHS:Ub complex (protein)
chain: IHSVDLSDEEKDSIYMFASLVEKMKSRPLNEILEDSKLQNLAQRVFASKARLNYALNDKAQKYNTLIEMNGKISEIMNIYDRLLEQQLQSINLSQQMEKKITGYTTVDISQWHRKEHFEAFQSVAQ
modifications: left off: small tags and cut ends
notes: VHS domain of Vps27 in VHS:Ub complex
As for B1, the Kd with Ub [2] is 1.5 mM.
